IC50 data for 24 compounds are collected here from US20240018102A1, “COMPOUNDS AND COMPOSITIONS FOR TREATING CONDITIONS ASSOCIATED WITH LPA RECEPTOR ACTIVITY” (Lhotse Bio, Inc., priority 2020, published 2024).

The IC50 is the concentration needed to halve the response being measured.

The target in the test is T1, human LPA1 (Homo sapiens, UniProt Q92633).
T1 construct: expressed in transfected cells; host or cells: CHO-K1
T1 sequence (Q92633 whole entry): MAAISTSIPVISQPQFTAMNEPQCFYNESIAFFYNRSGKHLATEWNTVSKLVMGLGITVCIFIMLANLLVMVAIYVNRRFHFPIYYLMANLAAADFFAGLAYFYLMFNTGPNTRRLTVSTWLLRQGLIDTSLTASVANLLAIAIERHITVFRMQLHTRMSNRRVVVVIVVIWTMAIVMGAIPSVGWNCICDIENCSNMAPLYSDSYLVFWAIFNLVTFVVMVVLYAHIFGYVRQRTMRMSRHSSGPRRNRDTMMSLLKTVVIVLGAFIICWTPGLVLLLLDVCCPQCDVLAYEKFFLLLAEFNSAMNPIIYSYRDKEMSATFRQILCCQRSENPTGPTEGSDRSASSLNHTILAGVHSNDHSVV
Briefly: In vitro LPA1 calcium flux antagonist assay, Bioduro protocol. It counts as cell-based. The settings on record: CHO-K1 cells overexpressing human LPA1 and G15a; LPA challenge at EC80; calcium mobilization on FLIPR Tetra; read-out: IC50 (nM) in Assay B2. As to the method: In Vitro LPA1 Calcium Flux Antagonist Assay Bioduro Protocol
CHO-K1 cells overexpressing human LPA1 and G15a were seeded at a total volume of 20 uL (15000 cells/well) into Matrigel pre-coated 384-well plates (coming -3764) and incubated at 37° C. After overnight incubation, the cells were serum starved for 4 h. Assays were performed in dye loading buffer containing 1× Fluo-8 AM (AAT Bioquest, 21080) and 2.5 mM probenecid (Thermo Fisher, 36400) in HBSS/20 mM Hepes. After cell starvation, the medium was replaced with 20 uL of dye loading buffer and incubated at 37° C. for 30 min. Then 5 uL of 5× compound titrated in dye loading buffer was added to the cells and incubated for 30 min followed by LPA challenge at EC80. Calcium mobilization was measured on a FLIPR Tetra (MDS). For LPA EC80 determination, starved cells were incubated with 20 uL of dye loading buffer for 1 h, then 5 uL of 5×LPA titrated in dye loading buffer was added to the cells. Calcium signals induced by LPA was monitors on a FLIPR.
Percentage inhibition is calculated using the following formula:
% Inhibition=100%×(1−(mean RFU of test sample−mean RFU of DMSO)/(mean RFU of LPA control−mean RFU of DMSO)).
A general note: Calcium assays in cells follow changes in intracellular calcium, usually with a dye or a luminescent sensor.
On to `CCc1cc(C(=O)O)c2nc(C[C@H](OC3CCCC3)[C@H](O)c3cc(OC)c(C)c(OC)c3)cn2c1` [Compound 230], for which the IC50 came to 872 nM.

With `COc1cc([C@@H](O)C(Cc2nc(C3(C(=O)O)CC3)c(C)s2)OC2CCCC2)cc(OC)c1C` (stereo partly drawn) [Compound 207], the IC50 amounted to 723 nM.

Regarding `COc1cc([C@@H](O)[C@H](Cc2cc3cc(C)cc(C(=O)O)n3n2)OCC(C)C)cc(OC)c1C` [Compound 252], the concentration for half-maximal inhibition (IC50) worked out at 24.5 nM.

For `COc1cc([C@@H](O)[C@H](Cn2cc3nccc(C(=O)O)c3n2)OC2CCCC2)c(Cl)c(OC)c1C` [Compound 202], the IC50 amounted to 4260 nM.

Regarding `COc1cc([C@@H](O)[C@H](Cn2cc3cc(C(N)=O)cc(C(=O)O)c3n2)OC2CCCC2)cc(OC)c1C` [Compound 221], the IC50 was 91.8 nM.

For the compound `COc1cc([C@@H](O)[C@H](Cc2nc(C(C)C(=O)O)c(C3CC3)s2)OC2CCCC2)cc(OC)c1C` (stereo partly drawn) [Compound 268], the IC50 was 52 nM.

Consider `COc1cc([C@@H](O)[C@H](Cn2cc3cccc(C(=O)NS(C)(=O)=O)c3n2)OC2CCCC2)cc(OC)c1C` [Compound 171], for which the IC50 is at least 10000 nM.

For `COc1cc([C@@H](O)[C@H](Cn2cc3cc(C#N)cc(C(=O)O)c3n2)OCC(C)C)cc(OC)c1C` [Compound 232], the half-inhibitory concentration (IC50) came to 27.2 nM.

As for `COc1cc([C@@H](O)[C@H](Cn2cc3c(F)ccc(C(=O)O)c3n2)OC2CCCC2)cc(OC)c1C` [Compound 153], the IC50 stood at 5.42 nM.

On to `COc1cc([C@@H](O)[C@H](Cc2nc3c(C(=O)O)cc(Cl)cc3s2)OC2CCCC2)cc(OC)c1C` [Compound 246], for which the IC50 was determined as 1.65 nM.

Turning to `COc1cc([C@@H](O)[C@H](Cn2cc3cc(C4CC4)nc(C(=O)O)c3n2)OC2CCCC2)cc(OC)c1C` [Compound 231], the IC50 came to 11.1 nM.

For the compound `COc1cc([C@@H](O)[C@H](Cc2nc3c(C(=O)O)cc(OC)c(F)c3s2)OC2CCCC2)cc(OC)c1C` [Compound 279], the half-maximal inhibitory concentration (IC50) turned out to be 2.71 nM.

For the compound `COc1cc([C@@H](O)[C@H](Cc2cn3nccc(C(=O)O)c3n2)OC2CCCC2)cc(OC)c1C` [Compound 156], the IC50 was 301 nM.

As for `COc1cc([C@@H](O)[C@H](Cn2cc3cccc(C#N)c3n2)OC2CCCC2)cc(OC)c1C` [Compound 183], the IC50 was over 10000 nM.

As to `COc1cc([C@@H](O)[C@H](Cc2nc3c(C(=O)O)cc(C(F)(F)F)cc3s2)OC2CCCC2)cc(OC)c1C` [Compound 244], the IC50 came to 3.34 nM.

Consider `COc1c(C)ccc([C@@H](O)[C@H](Cn2cc3nccc(C(=O)O)c3n2)OC2CCCC2)c1C` [Compound 192], for which the IC50 came out at 1120 nM.

With `COc1cc([C@@H](O)[C@H](Cc2nc3c(C(=O)O)cc(C)cc3s2)OC2CCCC2)cc(OC)c1C` [Compound 256], the IC50 came out at 4.12 nM.

Regarding `COc1cc([C@@H](O)[C@H](Cc2cc3c(C(=O)O)cccc3s2)OC2CCCC2)cc(OC)c1C` [Compound 265, 2-((2S,3R)-2-(cyclopentyloxy)-3-(3,5-dimethoxy-4-methylphenyl)-3-hydroxypropyl)benzo[b]thiophene-4-carboxylic acid], the half-maximal inhibitory concentration (IC50) was found to be 22.7 nM.

`COc1cc([C@@H](O)[C@H](Cn2cc3cc(C#N)cc(C(=O)O)c3n2)OC2CCCC2)ccc1C1CC1` [Compound 227]: the IC50 came out at 149 nM.

With `COc1cc([C@@H](O)[C@H](Cn2cc3nccc(C(=O)O)c3n2)OC2CCCC2)ccc1C` [Compound 191], the IC50 came out at 662 nM.

Consider `COc1cc([C@@H](O)[C@H](Cn2cc3ccc(C#N)c(C(=O)O)c3n2)OC2CCCC2)cc(OC)c1C` [Compound 180], for which the IC50 was 153 nM.

As for `COc1cc([C@@H](O)[C@H](Cn2nnc3c(C(=O)O)cccc32)OC2CCCC2)cc(OC)c1C` [Compound 213], the IC50 was at least 10000 nM.

With `CCOc1cc([C@@H](O)[C@H](Cn2cc3cncc(C(=O)O)c3n2)OC2CCCC2)cc(OCC)n1` [Compound 208], the IC50 is at least 10000 nM.

Take `CCCc1cc(C(=O)O)c2nn(C[C@H](OC3CCCC3)[C@H](O)c3cc(OC)c(C)c(OC)c3)cc2n1` [Compound 219]: the IC50 turned out to be 20.4 nM.
